From ChEMBL document CHEMBL3991601, “The target landscape of clinical kinase drugs” (Science, 2017)
Activity calls are given as the source filed them.

Assays:
[1] = target: Phosphatidylethanolamine-binding protein 1 (Homo sapiens, UniProt P30086)
[2] = target: Dual specificity protein kinase CLK2 (Homo sapiens, UniProt P49760)
[3] = target: Serine/threonine-protein kinase 24 (Homo sapiens, UniProt Q9Y6E0)
[4] = target: Dual specificity protein kinase CLK3 (Homo sapiens, UniProt P49761); type: subcellular, K-562, COLO 205, SK-N-BE(2) and MV-4-11, Cell lysate; details: read-out: Kd apparent
Sequence of Dual specificity protein kinase CLK3 (P49761 whole entry): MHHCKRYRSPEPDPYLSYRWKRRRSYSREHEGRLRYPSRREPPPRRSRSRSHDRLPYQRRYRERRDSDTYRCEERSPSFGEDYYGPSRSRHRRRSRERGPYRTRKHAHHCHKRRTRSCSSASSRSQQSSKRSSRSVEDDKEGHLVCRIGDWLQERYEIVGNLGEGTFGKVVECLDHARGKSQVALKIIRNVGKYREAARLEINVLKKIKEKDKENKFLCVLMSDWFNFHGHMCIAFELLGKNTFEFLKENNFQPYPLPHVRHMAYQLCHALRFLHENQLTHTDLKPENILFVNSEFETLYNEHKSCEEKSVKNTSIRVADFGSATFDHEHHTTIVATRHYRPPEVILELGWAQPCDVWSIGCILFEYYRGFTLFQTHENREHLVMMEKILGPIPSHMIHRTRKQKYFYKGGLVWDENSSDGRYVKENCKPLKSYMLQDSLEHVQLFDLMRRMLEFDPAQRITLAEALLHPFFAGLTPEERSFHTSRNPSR

[5] = target: Serine/threonine-protein kinase PAK 6 (Homo sapiens, UniProt Q9NQU5)
Sequence of Serine/threonine-protein kinase PAK 6 (Q9NQU5 whole entry): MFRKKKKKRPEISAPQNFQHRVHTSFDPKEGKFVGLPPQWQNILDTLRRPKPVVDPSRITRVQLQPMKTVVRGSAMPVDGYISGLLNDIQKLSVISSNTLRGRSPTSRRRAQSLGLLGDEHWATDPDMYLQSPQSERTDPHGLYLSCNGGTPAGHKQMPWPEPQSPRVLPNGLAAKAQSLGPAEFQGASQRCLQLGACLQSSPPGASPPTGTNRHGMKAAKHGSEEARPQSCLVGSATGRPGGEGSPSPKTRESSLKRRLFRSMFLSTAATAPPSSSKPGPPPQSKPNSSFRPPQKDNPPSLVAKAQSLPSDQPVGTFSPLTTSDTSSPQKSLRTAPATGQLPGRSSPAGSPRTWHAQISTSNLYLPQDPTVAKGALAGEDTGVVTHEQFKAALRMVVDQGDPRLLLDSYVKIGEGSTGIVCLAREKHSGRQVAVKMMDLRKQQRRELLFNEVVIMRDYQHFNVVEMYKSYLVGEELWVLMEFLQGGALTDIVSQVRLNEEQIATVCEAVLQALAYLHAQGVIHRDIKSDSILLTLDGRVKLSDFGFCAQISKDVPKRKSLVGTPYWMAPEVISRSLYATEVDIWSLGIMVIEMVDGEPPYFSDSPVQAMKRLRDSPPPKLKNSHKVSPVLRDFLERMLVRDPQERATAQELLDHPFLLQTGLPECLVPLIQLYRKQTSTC

Misshapen-like kinase 1 = Misshapen-like kinase 1 (Homo sapiens, UniProt Q8N4C8)
[6] = target: G protein-coupled receptor kinase 6 (Homo sapiens, UniProt P43250)
Sequence of G protein-coupled receptor kinase 6 (P43250 whole entry): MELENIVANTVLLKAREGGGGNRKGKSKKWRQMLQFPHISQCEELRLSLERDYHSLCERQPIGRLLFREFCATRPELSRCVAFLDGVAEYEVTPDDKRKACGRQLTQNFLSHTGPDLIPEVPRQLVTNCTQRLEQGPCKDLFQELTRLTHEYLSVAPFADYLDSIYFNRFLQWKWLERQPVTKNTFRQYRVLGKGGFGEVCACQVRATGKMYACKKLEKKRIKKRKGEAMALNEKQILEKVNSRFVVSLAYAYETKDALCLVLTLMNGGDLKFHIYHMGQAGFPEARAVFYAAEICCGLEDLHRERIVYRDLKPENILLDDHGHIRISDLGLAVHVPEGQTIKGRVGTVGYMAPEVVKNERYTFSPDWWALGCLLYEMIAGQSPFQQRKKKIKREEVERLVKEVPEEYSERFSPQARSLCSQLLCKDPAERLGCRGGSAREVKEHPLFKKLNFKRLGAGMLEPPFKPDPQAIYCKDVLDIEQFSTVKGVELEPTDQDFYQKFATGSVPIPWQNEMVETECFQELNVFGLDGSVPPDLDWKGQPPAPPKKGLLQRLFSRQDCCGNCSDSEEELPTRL

[7] = target: T1, ATP-dependent RNA helicase DHX30 (Homo sapiens, UniProt Q7L2E3)
T1 sequence (Q7L2E3 whole entry): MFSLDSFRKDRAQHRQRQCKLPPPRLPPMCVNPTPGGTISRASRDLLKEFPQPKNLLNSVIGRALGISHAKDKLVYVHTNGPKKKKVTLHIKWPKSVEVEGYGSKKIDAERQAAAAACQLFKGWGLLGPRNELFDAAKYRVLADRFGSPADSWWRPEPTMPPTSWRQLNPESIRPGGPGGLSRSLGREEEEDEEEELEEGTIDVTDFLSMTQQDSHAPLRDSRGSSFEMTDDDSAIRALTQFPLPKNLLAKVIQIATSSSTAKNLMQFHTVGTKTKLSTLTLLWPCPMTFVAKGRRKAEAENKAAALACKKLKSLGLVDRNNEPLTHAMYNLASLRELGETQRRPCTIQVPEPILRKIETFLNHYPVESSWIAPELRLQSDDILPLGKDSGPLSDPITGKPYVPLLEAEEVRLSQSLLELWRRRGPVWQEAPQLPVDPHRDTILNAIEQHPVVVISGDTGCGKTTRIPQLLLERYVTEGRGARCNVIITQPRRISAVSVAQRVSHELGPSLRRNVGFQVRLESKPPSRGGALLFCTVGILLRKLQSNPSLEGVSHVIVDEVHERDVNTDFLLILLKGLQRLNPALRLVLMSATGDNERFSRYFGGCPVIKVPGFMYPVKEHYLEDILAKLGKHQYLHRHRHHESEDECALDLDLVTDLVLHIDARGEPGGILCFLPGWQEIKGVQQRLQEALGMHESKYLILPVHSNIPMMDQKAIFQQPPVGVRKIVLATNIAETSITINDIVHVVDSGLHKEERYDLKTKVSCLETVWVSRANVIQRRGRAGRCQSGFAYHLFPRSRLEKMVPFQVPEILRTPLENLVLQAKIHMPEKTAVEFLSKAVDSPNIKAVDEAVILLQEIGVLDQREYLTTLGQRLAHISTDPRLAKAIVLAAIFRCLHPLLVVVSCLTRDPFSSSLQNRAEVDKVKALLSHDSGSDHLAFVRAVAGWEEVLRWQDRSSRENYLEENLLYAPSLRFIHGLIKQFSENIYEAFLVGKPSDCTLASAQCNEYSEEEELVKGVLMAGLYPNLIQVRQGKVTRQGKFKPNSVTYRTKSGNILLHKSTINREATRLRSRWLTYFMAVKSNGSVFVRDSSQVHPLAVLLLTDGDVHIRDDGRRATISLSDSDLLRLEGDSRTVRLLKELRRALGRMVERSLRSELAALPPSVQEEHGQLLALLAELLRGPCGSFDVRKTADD

Obg-like ATPase 1 = Obg-like ATPase 1 (Homo sapiens, UniProt Q9NTK5)
Sequence of Obg-like ATPase 1 (Q9NTK5 whole entry, looked up): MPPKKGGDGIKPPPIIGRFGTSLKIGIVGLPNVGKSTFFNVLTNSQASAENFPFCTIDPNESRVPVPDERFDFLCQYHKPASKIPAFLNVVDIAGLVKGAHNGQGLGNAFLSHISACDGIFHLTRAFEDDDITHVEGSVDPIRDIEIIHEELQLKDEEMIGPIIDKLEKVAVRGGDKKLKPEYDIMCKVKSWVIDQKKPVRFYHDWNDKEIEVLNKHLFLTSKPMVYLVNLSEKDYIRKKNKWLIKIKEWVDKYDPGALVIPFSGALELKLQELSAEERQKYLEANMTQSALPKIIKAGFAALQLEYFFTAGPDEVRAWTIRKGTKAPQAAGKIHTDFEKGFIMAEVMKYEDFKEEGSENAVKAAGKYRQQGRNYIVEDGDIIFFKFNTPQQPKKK

[8] = target: Cyclin-dependent kinase 17 (Homo sapiens, UniProt Q00537)
Sequence of Cyclin-dependent kinase 17 (Q00537 whole entry): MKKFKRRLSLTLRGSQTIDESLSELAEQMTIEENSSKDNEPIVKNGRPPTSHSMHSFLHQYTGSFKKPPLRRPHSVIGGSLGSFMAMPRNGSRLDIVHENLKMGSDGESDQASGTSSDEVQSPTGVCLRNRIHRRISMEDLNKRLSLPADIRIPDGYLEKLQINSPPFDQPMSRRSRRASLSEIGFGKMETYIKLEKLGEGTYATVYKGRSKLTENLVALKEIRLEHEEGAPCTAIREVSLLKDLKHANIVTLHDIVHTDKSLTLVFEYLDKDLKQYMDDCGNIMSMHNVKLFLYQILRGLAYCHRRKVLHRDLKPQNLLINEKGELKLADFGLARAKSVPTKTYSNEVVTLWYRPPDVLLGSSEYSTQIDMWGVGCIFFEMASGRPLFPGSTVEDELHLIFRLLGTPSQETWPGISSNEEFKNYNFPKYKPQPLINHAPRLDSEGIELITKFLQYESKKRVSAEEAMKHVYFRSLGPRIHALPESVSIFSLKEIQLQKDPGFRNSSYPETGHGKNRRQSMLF

Ephrin type-A receptor 1 = target: T2, Ephrin type-A receptor 1 (Homo sapiens, UniProt P21709)
T2 sequence (P21709 whole entry): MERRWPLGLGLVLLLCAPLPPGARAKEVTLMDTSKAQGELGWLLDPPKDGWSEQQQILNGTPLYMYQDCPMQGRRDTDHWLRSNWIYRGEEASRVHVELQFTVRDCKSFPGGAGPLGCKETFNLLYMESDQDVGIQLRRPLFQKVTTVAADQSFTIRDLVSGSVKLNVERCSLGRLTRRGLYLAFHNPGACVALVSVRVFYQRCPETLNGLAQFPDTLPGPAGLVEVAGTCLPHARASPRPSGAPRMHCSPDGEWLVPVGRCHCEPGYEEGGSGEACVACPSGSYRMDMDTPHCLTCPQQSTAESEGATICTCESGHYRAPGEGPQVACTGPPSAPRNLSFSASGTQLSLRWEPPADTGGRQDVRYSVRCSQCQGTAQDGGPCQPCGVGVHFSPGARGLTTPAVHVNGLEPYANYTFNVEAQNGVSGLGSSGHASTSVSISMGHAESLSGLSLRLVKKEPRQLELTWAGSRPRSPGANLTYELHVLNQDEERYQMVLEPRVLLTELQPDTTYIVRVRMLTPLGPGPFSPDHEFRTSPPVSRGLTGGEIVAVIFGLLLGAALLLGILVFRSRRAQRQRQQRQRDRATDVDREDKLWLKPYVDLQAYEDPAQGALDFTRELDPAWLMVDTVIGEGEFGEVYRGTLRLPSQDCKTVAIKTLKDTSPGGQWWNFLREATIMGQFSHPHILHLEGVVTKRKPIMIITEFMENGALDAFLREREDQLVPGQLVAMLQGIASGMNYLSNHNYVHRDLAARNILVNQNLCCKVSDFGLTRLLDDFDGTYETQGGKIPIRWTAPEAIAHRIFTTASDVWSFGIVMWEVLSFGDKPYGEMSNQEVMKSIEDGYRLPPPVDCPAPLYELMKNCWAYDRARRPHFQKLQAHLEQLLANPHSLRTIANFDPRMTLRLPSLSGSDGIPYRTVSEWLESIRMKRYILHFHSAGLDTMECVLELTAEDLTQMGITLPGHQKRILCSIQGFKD

Myosin-10 = Myosin-10 (Homo sapiens, UniProt P35580)
[9] = target: Choline-phosphate cytidylyltransferase A (Homo sapiens, UniProt P49585)
[10] = target: Serine/threonine-protein kinase Nek7 (Homo sapiens, UniProt Q8TDX7)
Sequence of Serine/threonine-protein kinase Nek7 (Q8TDX7 whole entry): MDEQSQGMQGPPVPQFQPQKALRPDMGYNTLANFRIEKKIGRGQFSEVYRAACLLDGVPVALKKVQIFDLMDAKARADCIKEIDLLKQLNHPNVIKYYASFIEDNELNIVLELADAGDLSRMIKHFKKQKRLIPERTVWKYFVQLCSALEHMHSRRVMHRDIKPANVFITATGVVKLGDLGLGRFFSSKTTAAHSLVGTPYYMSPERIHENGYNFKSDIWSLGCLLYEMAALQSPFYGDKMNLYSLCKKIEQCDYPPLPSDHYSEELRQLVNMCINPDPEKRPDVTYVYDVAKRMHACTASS

[11] = target: Cell division cycle 7-related protein kinase (Homo sapiens, UniProt O00311)
Sequence of Cell division cycle 7-related protein kinase (O00311 whole entry): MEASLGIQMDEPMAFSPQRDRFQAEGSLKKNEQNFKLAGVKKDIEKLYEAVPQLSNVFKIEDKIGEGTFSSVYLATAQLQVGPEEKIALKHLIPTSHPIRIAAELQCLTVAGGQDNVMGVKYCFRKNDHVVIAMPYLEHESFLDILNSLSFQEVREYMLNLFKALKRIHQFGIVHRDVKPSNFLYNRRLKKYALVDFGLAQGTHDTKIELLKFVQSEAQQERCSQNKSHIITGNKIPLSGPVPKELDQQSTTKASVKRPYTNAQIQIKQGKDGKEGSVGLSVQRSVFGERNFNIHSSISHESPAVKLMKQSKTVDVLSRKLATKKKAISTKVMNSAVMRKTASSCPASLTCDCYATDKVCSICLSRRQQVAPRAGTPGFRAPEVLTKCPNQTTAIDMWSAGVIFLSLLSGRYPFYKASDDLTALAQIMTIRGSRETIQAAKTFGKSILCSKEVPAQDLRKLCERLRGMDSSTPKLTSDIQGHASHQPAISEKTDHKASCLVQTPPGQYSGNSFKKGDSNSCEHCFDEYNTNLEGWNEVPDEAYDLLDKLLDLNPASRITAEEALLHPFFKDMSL
Further: in the data inactive means no Kd found up to 30 µM.

Sequence of Phosphatidylethanolamine-binding protein 1 (P30086 whole entry): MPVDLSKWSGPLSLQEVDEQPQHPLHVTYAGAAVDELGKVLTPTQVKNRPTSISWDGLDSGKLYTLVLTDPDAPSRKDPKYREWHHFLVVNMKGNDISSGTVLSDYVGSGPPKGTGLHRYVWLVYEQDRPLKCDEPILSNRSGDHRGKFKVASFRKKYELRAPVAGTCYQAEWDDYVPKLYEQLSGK
Sequence of Dual specificity protein kinase CLK2 (P49760 whole entry): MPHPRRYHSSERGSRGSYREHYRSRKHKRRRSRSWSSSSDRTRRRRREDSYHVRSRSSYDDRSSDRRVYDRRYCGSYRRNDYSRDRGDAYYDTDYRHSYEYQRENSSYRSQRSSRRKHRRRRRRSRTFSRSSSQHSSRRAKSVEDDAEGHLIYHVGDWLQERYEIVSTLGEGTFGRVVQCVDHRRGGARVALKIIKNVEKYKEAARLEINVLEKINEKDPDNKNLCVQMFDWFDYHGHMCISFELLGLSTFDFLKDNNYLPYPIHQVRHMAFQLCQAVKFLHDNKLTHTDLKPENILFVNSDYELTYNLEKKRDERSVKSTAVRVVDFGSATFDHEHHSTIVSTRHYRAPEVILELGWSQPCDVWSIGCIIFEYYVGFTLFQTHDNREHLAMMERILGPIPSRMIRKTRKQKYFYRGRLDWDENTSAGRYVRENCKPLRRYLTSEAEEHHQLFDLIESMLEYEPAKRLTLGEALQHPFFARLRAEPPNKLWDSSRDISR
Sequence of Serine/threonine-protein kinase 24 (Q9Y6E0 whole entry): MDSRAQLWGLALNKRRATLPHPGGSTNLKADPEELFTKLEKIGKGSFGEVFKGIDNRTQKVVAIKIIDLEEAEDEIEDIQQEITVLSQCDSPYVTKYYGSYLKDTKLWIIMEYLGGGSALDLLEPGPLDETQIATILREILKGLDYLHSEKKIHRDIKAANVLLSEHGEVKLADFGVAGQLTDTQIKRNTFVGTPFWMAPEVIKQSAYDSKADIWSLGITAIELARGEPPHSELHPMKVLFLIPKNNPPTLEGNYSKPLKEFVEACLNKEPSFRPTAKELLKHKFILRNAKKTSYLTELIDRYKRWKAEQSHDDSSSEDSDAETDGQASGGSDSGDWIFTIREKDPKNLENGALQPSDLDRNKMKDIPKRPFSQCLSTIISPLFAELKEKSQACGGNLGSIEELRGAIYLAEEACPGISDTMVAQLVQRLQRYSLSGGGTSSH

SMILES	Kd [1]	Kd [2]	Kd [3]	Kd [4]	Kd [5]	Kd [6]	Kd [7]	Kd (Obg-like ATPase 1)	Kd [8]	Kd (Ephrin type-A receptor 1)	Kd (Myosin-10)	Kd [9]	Kd [10]	Kd [11]	Kd (Misshapen-like kinase 1)
CCS(=O)(=O)N1CC(CC#N)(n2cc(-c3ncnc4[nH]ccc34)cn2)C1 [BARICITINIB]	> 30 µM (inactive)	> 30 µM (inactive)	> 30 µM (inactive)	> 30 µM (inactive)	> 30 µM (inactive)	> 30 µM (inactive)	> 30 µM (inactive)	> 30 µM (inactive)	> 30 µM (inactive)	> 30 µM (inactive)	> 30 µM (inactive)				> 30 µM (inactive)
CO[C@H]1C[C@@H]2CC[C@@H](C)[C@@](O)(O2)C(=O)C(=O)N2CCCC[C@H]2C(=O)O[C@H]([C@H](C)C[C@@H]2CC[C@@H](OCCO)[C@H](OC)C2)CC(=O)[C@H](C)/C=C(\C)[C@@H](O)[C@@H](OC)C(=O)[C@H](C)C[C@H](C)/C=C/C=C/C=C/1C [EVEROLIMUS]	> 30 µM (inactive)	> 30 µM (inactive)		> 30 µM (inactive)		> 30 µM (inactive)	> 30 µM (inactive)	> 30 µM (inactive)	> 30 µM (inactive)	> 30 µM (inactive)	> 30 µM (inactive)	> 30 µM (inactive)	> 30 µM (inactive)	> 30 µM (inactive)	
COc1cc2nccc(Oc3ccc(NC(=O)NC4CC4)c(Cl)c3)c2cc1C(N)=O [LENVATINIB]	> 30 µM (inactive)	> 30 µM (inactive)	> 30 µM (inactive)	> 30 µM (inactive)		> 30 µM (inactive)		> 30 µM (inactive)	> 30 µM (inactive)	> 30 µM (inactive)	> 30 µM (inactive)		> 30 µM (inactive)		> 30 µM (inactive)
C=CC(=O)N1CCC(Oc2cc3c(Nc4ccc(Cl)c(Cl)c4F)ncnc3cc2OC)CC1 [POZIOTINIB]			> 30 µM (inactive)	> 30 µM (inactive)	> 30 µM (inactive)	> 30 µM (inactive)	> 30 µM (inactive)	> 30 µM (inactive)	> 30 µM (inactive)			> 30 µM (inactive)			> 30 µM (inactive)
O=C(Nc1cccc(Cl)c1)Nc1ncc(CCNc2ncnc3ccsc23)s1 [SNS-314]	> 30 µM (inactive)		> 30 µM (inactive)	> 30 µM (inactive)		> 30 µM (inactive)	> 30 µM (inactive)	> 30 µM (inactive)		> 30 µM (inactive)	> 30 µM (inactive)		> 30 µM (inactive)		
C[C@@H]1CN(Cc2ccc(F)cc2)[C@@H](C)CN1C(=O)c1cc2c(C(=O)C(=O)N(C)C)cn(C)c2cc1Cl [TALMAPIMOD]	> 30 µM (inactive)	> 30 µM (inactive)		> 30 µM (inactive)	> 30 µM (inactive)	> 30 µM (inactive)	> 30 µM (inactive)	> 30 µM (inactive)	> 30 µM (inactive)	> 30 µM (inactive)				> 30 µM (inactive)	
CN1CCC(COc2cnc(-c3cccc(Cn4nc(-c5cccc(C#N)c5)ccc4=O)c3)nc2)CC1 [TEPOTINIB]	> 30 µM (inactive)			> 30 µM (inactive)	> 30 µM (inactive)	> 30 µM (inactive)	> 30 µM (inactive)	> 30 µM (inactive)	> 30 µM (inactive)	> 30 µM (inactive)			> 30 µM (inactive)		> 30 µM (inactive)

Further lines, with some results ahead:

Kd [1]	Kd [2]	Kd [3]	Kd [4]	Kd [5]	Kd [6]	Kd [7]	Kd (Obg-like ATPase 1)	Kd [8]	Kd (Ephrin type-A receptor 1)	Kd (Myosin-10)	Kd [9]	Kd [10]	Kd [11]	SMILES	Kd (Misshapen-like kinase 1)
> 30 µM (inactive)		> 30 µM (inactive)	> 30 µM (inactive)	> 30 µM (inactive)	> 30 µM (inactive)	> 30 µM (inactive)	> 30 µM (inactive)			> 30 µM (inactive)	> 30 µM (inactive)			Cc1cc(Nc2cc(N3CCN(C)CC3)nc(/C=C/c3ccccc3)n2)n[nH]1 [ENMD-2076]	
> 30 µM (inactive)	> 30 µM (inactive)	> 30 µM (inactive)	> 30 µM (inactive)	> 30 µM (inactive)		> 30 µM (inactive)	> 30 µM (inactive)		> 30 µM (inactive)		> 30 µM (inactive)	> 30 µM (inactive)	> 30 µM (inactive)	O=C(Nc1ccc(-c2ccnc(Nc3ccc(N4CCOCC4)cc3)n2)cc1)C1CCCN1 (stereo not drawn) [XL-019]	
